The target in assay [1] is T1, human Edg7 receptor (Homo sapiens, UniProt Q9UBY5).
T1 sequence (Q9UBY5 1-353): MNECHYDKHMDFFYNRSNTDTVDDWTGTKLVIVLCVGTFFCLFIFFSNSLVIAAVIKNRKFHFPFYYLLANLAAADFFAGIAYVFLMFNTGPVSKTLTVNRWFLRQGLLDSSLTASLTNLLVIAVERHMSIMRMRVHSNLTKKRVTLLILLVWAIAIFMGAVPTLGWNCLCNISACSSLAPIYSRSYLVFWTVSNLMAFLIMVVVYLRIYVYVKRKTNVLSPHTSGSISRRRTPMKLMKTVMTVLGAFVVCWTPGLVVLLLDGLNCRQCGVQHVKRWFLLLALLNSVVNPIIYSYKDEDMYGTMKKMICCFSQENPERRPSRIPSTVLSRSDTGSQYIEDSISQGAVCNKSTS
Briefly: Intracellular calcium mobilization (FLIPR, fluo-3) in Edg7-transfected CHO cells. It is filed as cell-based. The arrangement: expressed in transfected cells; host or cells: CHO (transient, electroporation). The note with it: for activity against Edg7: data not shown. The procedure: (§1) Cells expressing the receptor of interest are plated into clear, flat-bottom, black-wall 96-well plates (Costar) at a density of 80,000-150,000 cells per well and allowed to incubate for 48 hr at 5% CO2, 37° C. The growth medium is aspirated and 100 μl of loading medium containing fluo-3 dye is added to each well. The loading medium contains: Hank's BSS (without phenol red)(Gibco), 20 mM HEPES (Sigma), 0.1 or 1% BSA (Sigma), dye/pluronic acid mixture (e.g. 1 mM Flou-3, AM (Molecular Probes) and 10% pluronic acid (Molecular Probes) mixed immediately before use), and 2.5 mM probenecid (Sigma)(prepared fresh) The cells are allowed to incubate for about 1 hour at 5% CO2, 37° C.
During the dye loading incubation the compound plate is prepared. The compounds are diluted in wash buffer (Hank's BSS (without phenol red), 20 mM HEPES, 2.5 mM probenecid) to a 4×final concentration and aliquoted into a clear v-bottom plate (Nunc). Following the incubation the cells are washed to remove the excess dye. A Denley plate washer is used to gently wash the cells 4 times and leave a 100 μl final volume of wash buffer in each well. The cell plate is placed in the center tray and the compound plate is placed in the right tray of the FLIPR. The FLIPR software is setup for the experiment, the experiment is run and the data are collected. The data are then analyzed using an excel spreadsheet program.
A general note: A change in cytosolic calcium serves as a functional read-out for many receptors and channels.

The test system of assay [2] is mock DNA (empty vector)-transfected CHO cells. Kind of assay: Intracellular calcium mobilization (FLIPR, fluo-3) in mock DNA-transfected CHO cells. Type of assay: cell-based, Chinese hamster. The note with it: mean±SEM, n=6, read-out: EC50 of increase in intracellular calcium.
Source text: In another method, the measurement of intracellular calcium can also be performed on a 96-well (or higher) format and with alternative calcium-sensitive indicators, preferred examples of these are: aequorin, Fluo-3, Fluo-4, Fluo-5, Calcium Green-1, Oregon Green, and 488 BAPTA. After activation of the receptors with agonist ligands the emission elicited by the change of intracellular calcium concentration can be measured by a luminometer, or a fluorescence imager; a preferred example of this is the fluorescence imager plate reader (FLIPR).
as §1
During the dye loading incubation the compound plate is prepared. […] The data are then analyzed using an excel spreadsheet program.

Assay [3] deals with mock (empty vector)-transfected Cos-7 cells. Briefly: Inositol phosphate (IP) formation in mock (empty vector)-transfected Cos-7 cells. Type of assay: cell-based. The note with it: 1 μM final concentration, n=4. The procedure: A typical protocol for the electroporation method as applied to Cos-7 cells is described as follows. Cells to be used for transfection are split 24 hours prior to the transfection to provide flasks which are subconfluent at the time of transfection. The cells are harvested by trypsinization resuspended in their growth media and counted. 5×10^6 cells are suspended in 300 μl of DMEM and placed into an electroporation cuvette. 8 μg of receptor DNA plus 8 μg of any additional DNA needed (e.g. G protein expression vector, reporter construct, antibiotic resistance marker, mock vector, etc.) is added to the cell suspension, the cuvette is placed into a BioRad Gene Pulser and subjected to an electrical pulse (Gene Pulser settings: 0.25 kV voltage, 950 μF capacitance). Following the pulse, 800 μl of complete DMEM is added to each cuvette and the suspension transferred to a sterile tube. Complete medium is added to each tube to bring the final cell concentration to 1×10^5 cells/100 μl. The cells are then plated as needed depending upon the type of assay to be performed. Edg7 receptor-mediated activation of the inositol phosphate (IP) second messenger pathways was assessed by radiometric measurement of IP products. […] 200 μL of scintillation cocktail is added to each well, and the radioactivity is determined by liquid scintillation counting.

The target of assay [4] is T1, human Edg7 receptor. Kind of assay: Inositol phosphate (IP) release in Edg7-transfected Cos-7, HEK293 and CHO cells. It is filed as cell-based. Details: expressed in transfected cells; host or cells: Cos-7, HEK293, CHO (transient, electroporation). The note with it: for ability to activate Edg7 (inositol phosphate formation): Cos-7 cells transfected with Edg7, varying concentrations. On the procedure: A typical protocol for the electroporation method as applied to Cos-7 cells is described as follows. Cells to be used for transfection are split 24 hours prior to the transfection to provide flasks which are subconfluent at the time of transfection. The cells are harvested by trypsinization resuspended in their growth media and counted. 5×10^6 cells are suspended in 300 μl of DMEM and placed into an electroporation cuvette. 8 μg of receptor DNA plus 8 μg of any additional DNA needed (e.g. G protein expression vector, reporter construct, antibiotic resistance marker, mock vector, etc.) is added to the cell suspension, the cuvette is placed into a BioRad Gene Pulser and subjected to an electrical pulse (Gene Pulser settings: 0.25 kV voltage, 950 μF capacitance). Following the pulse, 800 μl of complete DMEM is added to each cuvette and the suspension transferred to a sterile tube. Complete medium is added to each tube to bring the final cell concentration to 1×10^5 cells/100 μl. The cells are then plated as needed depending upon the type of assay to be performed. Edg7 receptor-mediated activation of the inositol phosphate (IP) second messenger pathways was assessed by radiometric measurement of IP products. In a 96 well microplate format assay, cells are plated at a density of 70,000 cells per well and allowed to incubate for 24 hours. The cells are then labeled with 0.5 μCi [^3H]myo-inositol overnight at 37° C., 5% CO2. Immediately before the assay, the medium is removed and replaced with 90 μL of PBS containing 10 mM LiCl. The plates are then incubated for 15 min at 37° C., 5% CO2. Following the incubation, the cells are challenged with agonist (10 μl/well; 10×concentration) for 30 min at 37° C., 5% CO2. The challenge is terminated by the addition of 100 μL of 50% v/v trichloroacetic acid, followed by incubation at 4° C. for greater than 30 minutes. Total IPs are isolated from the lysate by ion exchange chromatography. Briefly, the lysed contents of the wells are transferred to a Multiscreen HV filter plate (Millipore) containing Dowex AG1-X8 (200-400 mesh, formate form). The filter plates are prepared adding 100μL of Dowex AG1-X8 suspension (50% v/v, water: resin) to each well. The filter plates are placed on a vacuum manifold to wash or elute the resin bed. Each well is first washed 2 times with 200 μl of 5 mM myo-inositol. Total [^3H]inositol phosphates are eluted with 75 μl of 1.2M ammonium formate/0.1M formic acid solution into 96-well plates. 200 μL of scintillation cocktail is added to each well, and the radioactivity is determined by liquid scintillation counting.

In assay [5] the target is T1, human Edg7 receptor. Kind of assay: Calcium-activated Cl- currents in Xenopus oocytes injected with Edg7 mRNA. It is filed as cell-based. The procedure:
Oocytes are harvested from Xenopus laevis and injected with mRNA transcripts as previously described (Quick and Lester, 1994; Smith et al.,1997). Edg7 receptor RNA transcript is synthesized using the T7 polymerase (“Message Machine,” Ambion) from linearized plasmids or PCR products containing the complete coding region of the gene. Oocytes are injected with 1-50 ng synthetic receptor RNA and incubated for 3-8 days at 17° C. Currents are recorded under dual electrode voltage clamp (Axon Instruments Inc.) with 3 M KCl-filled glass microelectrodes having resistances of 1-2 Mohm. Unless otherwise specified, oocytes are voltage clamped at a holding potential of −80 mV. During recordings, oocytes are bathed in continuously flowing (1-3 ml/min) medium containing 96 mM NaCl, 2 mM KCl, 1.8 MM CaCl2, 1 mM MgCl2, and 5 mM HEPES, pH 7.5 (ND96). Drugs are applied either by local perfusion from a 10 μl glass capillary tube fixed at a distance of 0.5 mm from the oocyte, or by switching from a series of gravity fed perfusion lines.
Activation of the phospholipase C (PLC) pathway is assayed by applying a test compound in ND96 solution to oocytes previously injected with mRNA for the Edg7 receptor and observing inward currents at a holding potential of approximately −80 mV. The appearance of currents that reverse at −25 mV and display other properties of the Ca^++-activated Cl^− channel is indicative of receptor-activation of PLC and release of IP3 and intracellular Ca^++.
Involvement of the Gi/o class of G-proteins in GPCR-stimulated Ca^++-activated Cl^− currents is evaluated using PTX, a toxin which inactivates Gi/o G-proteins. Oocytes are injected with 25 ng PTX/oocyte and modulation of Ca^++-activated Cl^− currents by Edg7 receptor is evaluated 2-5 h subsequently.

For assay [6], the system named is LPA receptors endogenous to oocytes. Briefly: Calcium-activated Cl- currents in control (uninjected) Xenopus oocytes. It is filed as cell-based, Xenopus laevis.

Turning to `O=c1ccn([C@@H]2O[C@H](COP(=O)(O)OP(=O)(O)OP(=O)(O)O)[C@@H](O)[C@H]2O)c(=O)[nH]1` [UTP], in assay [1] (CHO cells, n=3), the “intracellular calcium responses in Edg7- versus mock DNA-transfected cells” value was “almost identical”.
As to `CCCCC/C=C\C/C=C\C/C=C\C/C=C\CCCC(=O)NCCO` [anandamide], the “activity against Edg7” value in assay [1] was “inactive”.
On to `CCCCCCCC/C=C\CCCCCCCC(=O)O` [oleic acid], for which the “activity against Edg7” value in assay [1] is “inactive”.
Regarding `CCCCCCCC/C=C\CCCCCCCC(=O)OCC(O)COP(=O)(O)O` (centres unmarked) [oleoyl LPA, oleoyl lysophosphatidic acid], the EC50 (usually the concentration that produces a half-maximal response) in assay [2] stood at 347 ± 54 nM. Besides, the “peak intracellular calcium response in Edg7-transfected cells as compared to mock DNA-transfected cells” value in assay [1] (CHO cells, 10 μM) was “approximately 3 fold”. The “average increase in IP production” value in assay [3] worked out at 2 fold; in assay [4] (Edg7-transfected Cos-7 cells, 1 μM final concentration, n=4) it was 3 fold. Besides, the “Emax of IP response” value in assay [4] (all three cell lines (Cos-7, HEK 293, CHO)) is given as 200-300%.
On to `CCCCC[C@H](O)/C=C/[C@H]1[C@H](O)CC(=O)[C@@H]1C/C=C\CCCC(=O)O` [prostaglandin E2], for which the “activity against Edg7” value in assay [1] is “inactive”.
In the case of `CCCCCCCCCCCCC/C=C/[C@@H](O)[C@@H](N)COP(=O)(O)O` [sphingosine-1-phosphate], the “activation of Edg7 receptors (intracellular calcium)” value in assay [1] (CHO cells, n=4) was “failed to activate”. Further, in assay [4], the “ability to activate Edg7 (inositol phosphate formation)” value (shortened to “ability to activate Edg7”) is listed as “No dose-responsiveness”.
With `CCCCCCCCCCCCC/C=C/[C@@H](O)[C@@H](N)COP(=O)([O-])OCC[N+](C)(C)C` [sphingosylphosphorylcholine], in assay [4], the “ability to activate Edg7” value was “No dose-responsiveness”.
For the compound Lysophosphatidic acid [LPA], in assay [5] (Edg7-injected oocytes, Cl- current), the “concentration at which nearly maximal responses were observed” value is recorded as 100 nM. Also, the “LPA response (Cl- current) after treatment with PTX” value in assay [5] (Edg7-injected oocytes, PTX 25 ng injected 2-5 h prior to recording) is given as “substantial current remained”; in assay [6] (control oocytes, PTX 25 ng injected 2-5 h prior to recording), “nearly abolished”. The Cl- current amplitude in assay [5] (oocytes injected with Edg7 mRNA, oleoyl LPA 1 μM, n=5) is reported as 1272±126 nA; in assay [6] (uninjected oocytes, batch with low endogenous LPA activity, oleoyl LPA 1 μM, n=5), 18±18 nA. Also, the “inward Cl- currents, typical response” value in assay [6] (control oocytes lacking injection of foreign mRNA) is 100-1000 nA.
Turning to lysophosphatidylserine, the “significantly different response in Edg7-expressing cells as compared to mock DNA-transfected cells” value in assay [1] (CHO cells, intracellular calcium, 10 μM) is recorded as “significantly different response”.
Regarding phosphatidic acid, the “activation of Edg7 receptors (intracellular calcium)” value in assay [1] (CHO cells, n=4) was “agonist”. In assay [1] (Edg7 receptors, CHO cells, n=4), the “increase in intracellular calcium” value is “approximately 5 fold”. The “ability to activate Edg7” value in assay [4] is on record as “partial agonist”.
In the case of phosphatidyl choline, the “activity against Edg7” value in assay [1] is “inactive”.
As for platelet-activating factor, the “activity against Edg7” value in assay [1] was “inactive”.
Same read-out and setting: under sphingomyelin stands “inactive”.
Same read-out and setting: under thromboxane B4 stands “inactive”.
